Reference: patent EP1479385B1, “Use of cyclooxygenase-2 inhibitors in the treatment and prevention of neoplasia” (G.D. Searle LLC, priority 1996, dated 1998)

Tests used:
[1] = system: PC-3 cells; assay: Human prostate cancer PC-3 tumors in nude mice; type: in vivo; conditions: 20 mg/kg/day in water
Experimental: (§1) Two human prostate cancer cell lines (PC-3 and LNCaP) were obtained (ATCC) to determine the efficacy of cyclooxygenase-2 inhibitors to inhibit tumor growth in a therapeutic model. In addition, the LNCaP cell line secretes prostate serum antigen (PSA) when grown in nude mice.
PC-3 cells (10^6 cells/0.2 ml of 30% matrigel) in RPMI 1640 medium was injected on the back of nude mice. […] After 45 days, PGE2 and TXB2 were measured.

[2] = system: Lewis lung carcinomas; assay: Murine Lewis lung carcinoma model (tumor volume); type: in vivo, C57BL/6 mice; conditions: day 32 after cancer cell injection, vs control group
Experimental: Lewis lung carcinomas were implanted sub-cutaneously into the foot pad of male C57BL/6 mice. The mice were subsequently treated with 4-[5-(4-chlorophenyl)-3-(difluoromethyl)-1H-pyrazol-1-yl)benzenesulfonamide. The drug was supplied in the drinking water at 6 mg/kg/day. […] The drug was supplied in the drinking water at the maximum tolerated dose of […]. A total of 10 mice/compound were tested. Tumor volume was determined twice a week using a plethysmometer. The % inhibition value is calculated by calculating the difference in tumor size compared with the control group.

[3] = system: LNCaP; assay: Human prostate cancer LNCaP tumors in nude mice; type: in vivo; conditions: dose equivalent to 6 mg/kg/day in the drinking water
From the text: as §1
PSA level was reduced to approximately 50% as judged by western blotting.

[4] = system: Lewis Lung carcinoma cells; assay: Combination therapy in Lewis Lung carcinoma model (tumor volume); type: in vivo, C57BL/6 mice; conditions: CTX 50 mg/kg injected on days 5, 7 and 9 after implantation
Experimental: Lewis Lung carcinoma cells (2.5 x 10^6 cells) prepared from a brei carried in C57BL/6 mice were injected sub-cutaneously into the hind legs of mice.

NS(=O)(=O)c1ccc(-n2nc(C(F)F)cc2-c2ccc(Cl)cc2)cc1 [COX-2 inhibitor, 4-[5-(4-chlorophenyl)-3-(difluoromethyl)-1H-pyrazol-1-yl]benzenesulfonamide]
inhibited tumor growth ([1]; administered from day 28, after 45 days): 55%
PGE2 levels reduced ([1]; measured after 45 days): 80-90%
TXB2 levels reduced ([1]; measured after 45 days): 80-90%
Tumor Volume (Day 32) % Inhibition ([2]; 6 mg/kg/day in the drinking water): 70.86%
inhibited the growth of the tumor ([3]; day 58): 55%
PSA level was reduced to ([3]; judged by western blotting): approximately 50%

O=P1(N(CCCl)CCCl)NCCCO1 (centres unmarked) [CTX, Cyclophosphamide]
Tumor Volume (Day 22) % Inhibition [4]: 57%

COc1ccc2c(c1)c(CC(=O)O)c(C)n2C(=O)c1ccc(Cl)cc1 [Indomethacin, indomethacin, reference compound]
Tumor Volume (Day 32) % Inhibition ([2]; 2 mg/kg/day (maximum tolerated dose) in the drinking water): 62.90%
